Holding throughout (assay type): cell-based
In assay [1] the test system is lung cancer cell lines (A549 and chemotherapy-resistant/metastatic H460). Briefly: XTT proliferation assay, lung cancer cells. The following applies: 1-2 days, FIG. 2. On the procedure: The prostate cancer cells were plated at a density of 10^3 or 3×10^3 per well, in a 96-well plate, in a medium containing 10% Fetal bovine serum (FBS) (Gibco®, commercially available from Life Technologies, USA). Once the prostate cancer cells were attached to the culture dish, the 10% FBS medium was replaced with a second 10% FBS medium and each of the prostate cancer cell line was treated with 1, 5, and 10 μM of DT respectively for 1-2 days. The absorbance was measured using XTT assay kit (commercially available from Roche, Switzerland) at 492 nm using an ELISA reader (Bio-Rad Laboratories, USA). An in vitro evaluation of the effect of DT, gemcitabine (a chemotherapeutic agent) and etoposide (a chemotherapeutic agent) on the lung cancer cells was performed. The lung cancer cell lines, chemotherapy-resistant/metastatic H460 lung cancer cells (with pleural metastasis) and A549 lung cancer cells, were purchased from Bioresource Collection and Research Center, Taiwan. […] The absorbance was measured using XTT assay kit at 492 nm using an ELISA reader.
On the technique in general: Formazan colour is commonly taken as a measure of viable cells.

The subject of assay [2] is ARK1 endometrial cancer cells. Briefly: XTT proliferation assay, ARK1. The following applies: 5, 10 and 20 μM DT, 1-2 days, FIG. 4. On the procedure:
(§1) The prostate cancer cells were plated at a density of 10^3 or 3×10^3 per well, in a 96-well plate, in a medium containing 10% Fetal bovine serum (FBS) (Gibco®, commercially available from Life Technologies, USA). Once the prostate cancer cells were attached to the culture dish, the 10% FBS medium was replaced with a second 10% FBS medium and each of the prostate cancer cell line was treated with 1, 5, and 10 μM of DT respectively for 1-2 days. The absorbance was measured using XTT assay kit (commercially available from Roche, Switzerland) at 492 nm using an ELISA reader (Bio-Rad Laboratories, USA).
(§2) An in vitro evaluation of the effect of DT on endometrial cancer cells was performed. The endometrial cancer cell lines, ARK1 and ARK2, were provided by Dr. T H Wang at Chang Gung Meorial Hospital, Linkou, Taiwan)
(§3) The endometrial cancer cells were cultured and plated according to the steps in Example 1 and each of the endometrial cancer cell line was treated with 0 (control), 5, 10 and 20 μM of DT, respectively for 1-2 days. The absorbance was measured using XTT assay kit at 492 nm using an ELISA reader.

Assay [3] has as its system ARK2 endometrial cancer cells. Briefly: XTT proliferation assay, ARK2. The following applies: 5, 10 and 20 μM DT, 1-2 days, FIG. 4. On the procedure: as §1, §2, §3
Assay [4] concerns skp2 and downstream genes in HCT116 colon cancer cells. Briefly: skp2 and downstream gene mRNA expression, colon cancer cells. The following applies: various concentrations of DT vs DMSO, FIG. 10 (g), (i). On the procedure: It has been reported that skp2 plays an important role in the metastasis of cancer cells. An in vitro evaluation of the effect of DT on prostate cancer cell metastasis was performed, by measuring the mRNA expression of skp2 in the following prostate cancer cell lines: meatstatic DU145 cells (Panels i-j of FIG. 9), hormone therapy resistant and metastatic PC3 cells (Panel h of FIG. 9), and 22RV1 cells (Panels k-l of FIG. 9), A549 lung cancer cells (Panels (c)-(e) of FIG. 10), chemotherapy-resistant/metastatic H460 lung cancer cells (Panels (d) and (f) of FIG. 10), HCT116 colon cancer cells (Panels (g) and (i) of FIG. 10) and MCF7-tamoxifen resistant breast cancer cells (Panels (h) and (j) of FIG. 10) […].
The cancer cells were treated with DMSO and various concentrations of DT.

In assay [5] the test system is prostate cancer cells (metastatic DU145, PC3, 22RV1). Briefly: Cell migration (wound-healing) assay, prostate cancer cells. The following applies: DT vs control vehicle, 24 h, dose dependent; FIG. 12 (b), (d), (f). On the procedure: (§4) An in vitro evaluation of the effect of DT on lung cancer cells (A549 and chemotherapy resistant/metastatic H460), prostate cancer cells (metastatic DU145) and colorectal cancer cells (chemotherapy resistant HCT116) invasion and migration was performed, using cell invasion assay and cell migration assay.
(§5) Cell Migration Assay: In vitro wound-healing assay was used to assess cell motility in two dimensions. Cancer cells were plated overnight to achieve a subconfluent cell layer in 24-well plates. A scratch was made on the cell layer with a micropipette tip, and cultures were washed twice with serum-free medium to remove floating cells. Cancer cells were incubated in a culture medium containing DT or the control vehicle. Wound healing was visualized by comparing photographs taken at the time of adding the DT/control vehicle and 24 h later. Three experiments were done in quadruplicates.

Assay [6] concerns colorectal cancer cells (chemotherapy resistant HCT116). Briefly: Cell migration (wound-healing) assay, colorectal cancer cells. The following applies: DT vs control vehicle, 24 h, dose dependent; FIG. 13 (b). On the procedure: as §4, §5
The subject of assay [7] is CCL2 in metastatic DU145 prostate cancer cells. Briefly: CCL2 ELISA of culture medium, DU145. The following applies: 5 or 10 μM DT, 24 hours, vs DMSO, FIG. 14 (c). On the procedure: It has been reported that increased CCL2 expression enhances cancer cell metastasis via macrophage recruitment. The effect of DT on CCL2 expression in RAW264.7 macrophages, THP1 monocytes and prostate cancer cells (metastatic DU145 and hormone therapy resistant and metastatic PC3) was examined by treating the cells with DMSO (control), 5 or 10 μM DT for 24 hours.
The culture medium was collected and the concentration of CCL2 was measured using ELISA assay.

The subject of assay [8] is CCL2 in THP1/DU145 co-culture. Briefly: CCL2 ELISA, THP1/DU145 co-culture. The following applies: DT-treated monocyte/DU145 co-culture medium; 5 or 10 μM DT, 24 hours; FIG. 15 (a). On the procedure:
As illustrated in Example 10, the production of CCL2 was inhibited by DT in both prostate cancer cells and macrophage, the effect of DT on monocyte/cancer cell co-culture and macrophage/cancer cell co-culture was examined using the invasion assay described in Example 9. • (a) THP1 monocytes, Raw264.7 macrophage, monocyte/prostate cancer co-culture and macrophage/prostate cancer co-culture were treated with a vehicle (DMSO), 5 or 10 μM DT for 24 hours, the cultured medium was collected and placed into the lower chamber of a transwell plate. • (b) Prostate cancer cells (PC3, DU145 and 22RV1) were placed in the cell invasion assay). The level of CCL2 in the invasion assay was measured by ELIZA method.
(ELISA stands for enzyme-linked immunosorbent assay.)

Assay [9] deals with macrophages. Briefly: Macrophage mobility after DT treatment. The following applies: macrophages treated with 5 or 10 μM DT vs DMSO. On the procedure: An in vitro study to evaluate the effect of DT on macrophage and cancer cell migration was performed.
Macrophages were treated with a vehicle (DMSO), 5 or 10 μM DT. The mobility of the macrophages was not affected by DT. The macrophages were placed in an invasive assay, prepared accordingly to the steps in Example 10 using DT-treated prostate cancer cells (DU145 or PC3) incubated in 10% CD-FBS RPMI medium.

SMILES strings stand for the structures. “Also recorded” adds a separate entry of the source.

On to `Cc1cccc2c3c(ccc12)C(=O)C1=C(OCC1C)C3=O` (stereo not shown) [DT, dihydroisotanshinone I], for which, in [1] (5, 10 and 20 μM DT, XTT), the “inhibition of lung cancer cells (proliferation)” value is given as “inhibits the lung cancer cells in a dose dependent fashion”. Further, the “inhibition of lung cancer proliferation, DT compared with gemcitabine and etoposide” value in [1] (DT 5, 10, 20 μM, gemcitabine hydrochloride and etoposide 10, 20 μM, regardless of the dosage, also H460) is “more effective than gemcitabine and etoposide in inhibiting lung cancer proliferation”. Further, the “inhibition of ARK1 endometrial cancer cells” value in assay [2] was “effective in inhibiting ARK1 and ARK2 endometrial cancer cells”. Moreover, the “inhibition of ARK2 endometrial cancer cells” value in [3] was “effective in inhibiting ARK1 and ARK2 endometrial cancer cells”. The “mRNA expression of skp2 and its downstream genes, colorectal cancer” value in assay [4] is “effectively inhibit mRNA expression of skp2 and its downstream genes; also recorded: reduces skps and its downstream genes, MMP2, MMP9 and E-cadherin”. Besides, the “prostate cancer cell migration into the wounded area” value in assay [5] is “reduced the motility and migration of prostate cancer cells; also recorded: reduced prostate cancer cell migration into the wounded area”. The “colorectal cancer cell migration into the wounded area” value in assay [6] is “reduced chemotherapy resistant colorectal cancer cell migration; also recorded: reduced colon cancer cell migration into the wounded area”. For the same molecule, the “production of CCL2 in metastatic DU145 prostate cancer cells” value in assay [7] is on record as “effectively inhibit the production of CCL2”. For the same molecule, the “concentration of CCL2” value in assay [8] is listed as “significantly reduced”. Also, the “mobility of the macrophages” value in [9] is listed as “not affected”.
